Values quoted from earlier work, collected in patent US20080247985A1, “Composition base containing solubilized allantoin and urea for topical preparations” (priority 2007, published 2008).

Details: water at 25 °C

Solubility in water: 0.45%
SMILES: NC(=O)NC1NC(=O)NC1=O (stereo not shown) [allantoin, (2,5-dioxo-4-imidazolidinyl) urea]
